Data as given in ChEMBL document CHEMBL1201862, “PubChem BioAssay data set” (2004).
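Step 1: Grow cells in 96-well plates. Step 2: Expose to compound for 48 hours at 5 concentrations. Step 3: Interpolate endpoints linearly; if unreached, use highest concentration. GI50 is the concentration that inhibits growth by half.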 Activity calls are given as the source filed them. Rule as the data show it: active = GI50 up to about 1.1 µM and inactive = higher.

Tests used:
Experiment in all cases: NCI tumour cell line growth inhibition, 48 h
[1] = tested on: SK-MEL-5
[2] = tested on: Malme-3M
[3] = tested on: HCT-116
[4] = tested on: NCI-H522
[5] = tested on: SR
[6] = tested on: SN12C
[7] = tested on: K562
[8] = tested on: SK-MEL-28
[9] = tested on: UACC-257
[10] = tested on: M14
[11] = tested on: NCI-H23
[12] = tested on: SNB-19
[13] = tested on: OVCAR-4
[14] = tested on: NCI-H226
[15] = tested on: HOP-92
[16] = tested on: U-251
[17] = tested on: ACHN
[18] = tested on: HT-29
[19] = tested on: SF-268

Measured: GI50

Cc1cc2c(cc1C)[n+]([O-])c(C(=O)CC(=O)C(=O)Nc1c(C(C)C)cccc1C(C)C)c(C)[n+]2[O-]
inactive: [1] > 100 µM | [2] > 100 µM | [3] > 100 µM | [4] > 100 µM | [5] > 100 µM | [6] > 100 µM | [7] > 100 µM | [8] > 100 µM | [9] > 100 µM | [10] > 100 µM | [11] > 100 µM | [12] > 100 µM | [13] > 100 µM | [14] > 100 µM | [15] > 100 µM | [16] > 100 µM | [17] > 100 µM | [18] > 100 µM | [19] > 100 µM

O=C1C2C3C=CC(C2C(=O)N1CN1CCSCC1)C1C2C(=O)N(CN4CCSCC4)C(=O)C2C31 (stereo not drawn)
inactive: [1] > 100 µM | [2] > 100 µM | [3] > 41.2 µM | [4] > 100 µM | [5] 39.7 µM | [6] 97.9 µM | [7] > 100 µM | [8] > 100 µM | [9] > 100 µM | [10] > 100 µM | [11] > 100 µM | [12] > 100 µM | [13] > 100 µM | [14] > 100 µM | [15] > 75.5 µM | [16] > 72.1 µM | [17] > 77.6 µM | [18] > 74 µM | [19] > 50.4 µM

CC(=O)OC1C(COC(N)=O)OC(n2c(-c3ccc(C)cc3)cc(-c3ccccc3)c(C#N)c2=O)C(OC(C)=O)C1OC(C)=O (stereo not drawn)
inactive: [1] > 100 µM | [2] > 100 µM | [3] > 100 µM | [4] > 100 µM | [5] > 100 µM | [6] > 100 µM | [7] > 100 µM | [8] > 100 µM | [9] > 100 µM | [10] > 100 µM | [11] > 100 µM | [12] > 100 µM | [13] > 100 µM | [14] > 100 µM | [15] 9.86 µM | [16] > 100 µM | [17] > 100 µM | [18] > 100 µM | [19] > 100 µM

CCCCCCNC(=O)CCN(C(=O)O)S(=O)(=O)c1ccc(NC(=O)c2ccccc2)cc1
inactive: [1] > 100 µM | [2] > 100 µM | [3] 39 µM | [4] > 20 µM | [5] 19.3 µM | [6] > 100 µM | [7] > 48.2 µM | [8] > 100 µM | [9] > 48.9 µM | [10] > 100 µM | [11] > 100 µM | [12] > 100 µM | [13] > 100 µM | [14] > 100 µM | [15] > 100 µM | [16] 20 µM | [17] > 100 µM | [18] > 86.1 µM | [19] > 78.9 µM

O=C(Cc1ccccc1)N/N=C(/c1nc2ccc([N+](=O)[O-])cc2nc1O)C(O)c1ccco1 (stereo not drawn)
inactive: [1] 66.4 µM | [2] > 100 µM | [3] > 100 µM | [4] 12.6 µM | [5] > 100 µM | [6] > 100 µM | [7] 44.4 µM | [8] > 100 µM | [9] > 100 µM | [10] > 100 µM | [11] > 100 µM | [13] > 100 µM | [14] > 100 µM | [15] > 100 µM | [16] > 100 µM | [17] 57.4 µM | [18] > 100 µM | [19] > 100 µM

C=CCCCCCCCCCP(=O)(c1ccccc1)c1ccc2c(c1)OCCOCCOCCOCCO2 (stereo not drawn)
inactive: [1] 11.3 µM | [2] 17.7 µM | [3] 10.4 µM | [4] 12.1 µM | [5] 7.16 µM | [6] 16.3 µM | [7] 9.42 µM | [8] 16.3 µM | [9] 16.7 µM | [10] > 100 µM | [11] 14.9 µM | [12] 13.1 µM | [13] 11.5 µM | [14] 13.7 µM | [15] > 100 µM | [16] 15.9 µM | [17] 16.7 µM | [18] 12.2 µM | [19] 15.3 µM

CC(=O)OC1C2CCC1C1C2C2(Cl)C(Cl)=C(Cl)C1(Cl)C2(Cl)Cl (stereo not drawn)
inactive: [1] 13 µM | [2] 12.6 µM | [3] 11.2 µM | [4] 12.3 µM | [5] 9.95 µM | [6] 15.1 µM | [8] 18.2 µM | [9] 13.2 µM | [10] 12.4 µM | [11] 12.2 µM | [12] 15.1 µM | [13] 19.7 µM | [14] 13 µM | [15] 11.2 µM | [16] 13.3 µM | [17] 12.2 µM | [18] 12.3 µM | [19] 17.7 µM

CN(C)CC1CC/C(=C\c2ccc(Cl)c(Cl)c2)C1=O (stereo not drawn)
inactive: [1] 45.7 µM | [2] > 62.5 µM | [3] 24.3 µM | [4] 6.38 µM | [5] 2.2 µM | [6] > 38.9 µM | [7] 5.58 µM | [8] 39.3 µM | [9] 24.7 µM | [10] 18.9 µM | [11] 20.6 µM | [12] 37.3 µM | [13] 19 µM | [14] > 100 µM | [15] 17.7 µM | [16] > 42.3 µM | [17] > 45.1 µM | [18] 25.5 µM | [19] 31.6 µM

CCOC(=O)COS(=O)(=O)C(F)(F)F
inactive: [1] > 100 µM | [2] > 100 µM | [3] 34.5 µM | [4] > 100 µM | [5] 24.7 µM | [6] > 100 µM | [7] > 100 µM | [8] > 100 µM | [9] > 100 µM | [10] > 100 µM | [11] > 100 µM | [12] > 100 µM | [13] > 100 µM | [14] > 100 µM | [15] > 100 µM | [16] > 100 µM | [17] > 100 µM | [18] > 100 µM | [19] 60.4 µM

O=c1c2cc([N+](=O)[O-])ccc2n2n1CCCC2
inactive: [1] > 100 µM | [2] > 100 µM | [3] > 100 µM | [4] > 100 µM | [5] > 100 µM | [6] > 100 µM | [7] > 100 µM | [8] > 100 µM | [9] > 100 µM | [10] > 100 µM | [11] > 100 µM | [12] > 100 µM | [13] > 100 µM | [14] > 100 µM | [15] > 100 µM | [16] > 100 µM | [17] > 100 µM | [18] > 100 µM | [19] > 100 µM
